Experimental data reported in patent US8192719B2, “Methods and kits to diagnose growth hormone deficiency by oral administration of EP 1572 or EP 1573 compounds” (Aeterna Zentaris GmbH, priority 2006, dated 2012).
Like-named read-outs stand apart in the source and are kept apart here.

Assay: pharmacokinetic profile of EP 1572 after oral administration in healthy male subjects
Assay type: in vivo
Conditions: human, plasma EP 1572, oral, mean ± SEM; for AUC(0-t): read-out: AUC (0-300) (converted)
Protocol: After a provocative test with EP 1572, the pharmacokinetic profile of EP 1572 and the level of GH released in response to its oral administration were established in 36 healthy male subjects at various doses.
From the subject a blood sample was drawn at 30 and 15 minutes before the administration of EP 1572. A sample of blood was taken from the subject immediately before the aqueous formulation containing 0.5 mg/kg of EP 1572 was orally administered to the subject. Further blood samples were taken from the subject at 15, 30, 60, 90, 120, 150, 180, 210, 240, 270 and 300 minutes from administration and a portion of each sample processed according to the assay protocol outlined below. The level of GH present in each sample was determined by the assay method outlined below and the peak concentration (Cmax) for the subject determined. The remainder of the sample was used to determine the level of EP 1572 present in the systemic circulation (as outlined below).
The organic components in human plasma were extracted using a total of […] of an ethyl acetate/iso-propanol mixture (82.5% and 17.5%, respectively). […] Quantification was performed with EP 1573 as an internal standard (peak area ratio evaluation).
Further dosing studies were carried out wherein the subjects were administered doses of 0.005, 0.05, 0.25 and 0.125 mg/kg each, using the formulations described above.

CC(C)(N)C(=O)N[C@H](Cc1c[nH]c2ccccc12)C(=O)N[C@H](Cc1c[nH]c2ccccc12)NC=O [EP 1572, H-Aib-D-Trp-D-gTrp-CHO]
Cmax (0.05 mg/kg): 0.86 ± 0.24 ng/mL
Tmax (0.05 mg/kg): 75 min
AUC(0-t) (0.05 mg/kg): 1.74 ng·h/mL
Cmax (0.125 mg/kg): 2.33 ± 0.39 ng/mL
Tmax (0.125 mg/kg): 62.5 min
AUC(0-t) (0.125 mg/kg): 5.35 ng·h/mL
Cmax (0.25 mg/kg): 3.92 ± 0.57 ng/mL
Tmax (0.25 mg/kg): 55 min
AUC(0-t) (0.25 mg/kg): 8.67 ng·h/mL
Cmax (0.5 mg/kg): 7.59 ± 0.83 ng/mL
Tmax (0.5 mg/kg): 50 min
AUC(0-t) (0.5 mg/kg): 16.1 ng·h/mL
